From patent US20180326102A1, “SYSTEMS, METHODS, AND COMPOSITIONS FOR IMAGING ANDROGEN RECEPTOR AXIS ACTIVITY IN CARCINOMA, AND RELATED THERAPEUTIC COMPOSITIONS AND METHODS” (Memorial Sloan Kettering Cancer Center, priority 2015, published 2018) come the findings set out here.

Square brackets hold non-standard residues; d marks the D form. Peptide text beside a SMILES is read from it. * marks the point of attachment. dPhe(4-NHCONH2) = NC(=O)Nc1ccc(C[C@@H](N)C(=O)O)cc1; Dihydroorotyl(S) = O=C1C[C@@H](C(=O)*)NC(=O)N1; dPhe(4-Cl) = N[C@H](Cc1ccc(Cl)cc1)C(=O)O; Phe(4-NH2) = Nc1ccc(C[C@H](N)C(=O)O)cc1; d2Nal = N[C@H](Cc1ccc2ccccc2c1)C(=O)O; Lys(iPr) = CC(C)NCCCC[C@H](N)C(=O)O; d3Pal = N[C@H](Cc1cccnc1)C(=O)O

Data set [1] has as its system Pb_KLK2×Hi-Myc mice. It is filed as in vivo. As for the experimental part:
A final clinical simulation involved non-invasive imaging of the impact of different degrees of inhibition on AR activity in the tumor (intratumoral) and prostate itself (intraprostatic). Progression of disease was initially monitored in 14 Pb_KLK2 XHi-Myc mice using ^89Zr-11B6 PET. Thereafter, mice were randomized into 3 treatment groups: vehicle (n=4), castration (n=6), or castration plus Enzalutamide (n=4).
PET imaging experiments were conducted on a micro-PET Focus 120 scanner (Concorde Microsystems). In initial studies, mice (n=4) were administered formulations of ^89Zr-11B6 [3.7-5.55 MBq (100-150 μCi), 300, 100, 50, or 25 μg of protein, in 150 μL sterile saline for injection] through i.v. Tail-vein injection. Approximately 5 minutes before recording PET images, mice were anesthetized by inhalation of 1% to 2% isoflurane (Baxter Healthcare)/oxygen gas mixture and placed on the scanner bed. PET images were recorded at various time points between 1 and 344 hours post-injection. […] For all static images, scan time was adjusted to ensure between 15-25 million coincident events were recorded.
Site-directed mutagenesis of APLILSR to APLRTKR at positions […], -3, and -2 the zymogen sequence of KLK2 was performed using a Quick Change Lightning Mutagenesis Kit (Stratagene). […] Mice were monitored closely in accordance with IACUC-established guidelines and RARC animal protocol (#04-01-002).

Data set [2] concerns VCaP. Briefly: 18F-FDHT imaging in VCaP bearing mouse. The format is in vivo. The note with it: 1.5 h after administration. As for the experimental part:
The distribution at 1.5 h after administration in a representative VCaP (arrow) bearing mouse. ^18F-FDHT is a radiolabeled analog of the non-aromatizable dihydrotestosterone.

As for `CC(=O)N[C@H](Cc1ccc2ccccc2c1)C(=O)N[C@H](Cc1ccc(Cl)cc1)C(=O)N[C@H](Cc1cccnc1)C(=O)N[C@@H](CO)C(=O)N[C@@H](Cc1ccc(NC(=O)[C@@H]2CC(=O)NC(=O)N2)cc1)C(=O)N[C@H](Cc1ccc(NC(N)=O)cc1)C(=O)N[C@@H](CC(C)C)C(=O)N[C@@H](CCCCNC(C)C)C(=O)N1CCC[C@H]1C(=O)N[C@H](C)C(N)=O` [Degarelix] (Ac-[d2Nal][dPhe(4-Cl)][d3Pal]S[Phe(4-NH2)](Dihydroorotyl(S))[dPhe(4-NHCONH2)]L[Lys(iPr)]P[dA]-NH2), the “^89Zr-11B6 uptake (AR pathway readout) during GnRH antagonist therapy” value in data set [1] (depot injections, androgen ablation for 2 months) is reported as “decreased following castration but reemerged at the end of the treatment period”.

Take `CC12CCC(=O)CC1CCC1C2CCC2(C)C(O)C([18F])CC12` (stereo not drawn) [^18F-FDHT]: the “Liver, bile and kidney uptake relative to tumor uptake” value in data set [2] was “equivalent to or exceeds tumor uptake”.

`CNC(=O)c1ccc(N2C(=S)N(c3ccc(C#N)c(C(F)(F)F)c3)C(=O)C2(C)C)cc1F` [Enzalutamide]: in data set [1] (castration plus Enzalutamide, n=4), the “reactivation of ^89Zr-11B6 uptake (AR activity) after castration plus adjuvant androgen receptor blockade” value is on record as “not significant”.
